Test results: US10934244B2, “Compounds for use in treating neuromuscular disorders” (NMD PHARMA A/S, priority 2015, dated 2021)

Key:
[1] = test system: isolated rat soleus muscles; assay: Recovery of nerve-stimulated force in isolated rat soleus muscles at elevated extracellular Mg2+ (3.5 mM); format: cell-based; details: muscle at elevated Mg2+ (3.5 mM); FIG. 2B
Method: (§1) Experiments were performed using rat soleus muscles from either young (4-wk-old) or adult Wistar rats (12-14-week-old). Animal handling, killing and isolation of muscle is described elsewhere^26 All experiments were performed using normal Krebs-Ringer bicarbonate solution^26 (NKR). In solutions with elevated Mg^2+, MgCl2 was added to NKR-solution causing minor increases in osmolarity and ionic strength. In solutions with elevated K^+, 4 mM NaCl was replaced by 4 mM KCl in the NKR.
In all contraction experiments, isometric force production was determined and force produced during contractions was quantified by measuring the integral of the force response (AUC). Stimulation and force recordings have been described elsewhere^26. […] In these latter experiments, extracellular recordings of action potentials (M-waves) could be measured without temporal overlap with stimulation artefacts. […]
The next series of experiments determined whether the compounds that recovered nerve-stimulated force in the presence of tubocurarine could also recover nerve-stimulated force at elevated extracellular Mg^2+.

[2] = test system: isolated rat soleus muscles; assay: Recovery of nerve-stimulated force in isolated rat soleus muscles exposed to sub-maximal tubocurarine; format: cell-based
Method: as §1
In all contraction experiments, isometric force production was determined and force produced during contractions was quantified by measuring the integral of the force response (AUC). Stimulation and force recordings have been described elsewhere^26. […] In these latter experiments, extracellular recordings of action potentials (M-waves) could be measured without temporal overlap with stimulation artefacts.
To initially confirm that inhibition of ClC-1 ion channels can be used to recover contractile force in muscle with reduced neuromuscular transmission, isolated nerve-muscle preparations were first exposed to either tubocurarine (FIG. 2A) or elevated Mg^2+ (FIG. 2B) and then a specific ClC-1 inhibitor (9-AC) was added. […]

[3] = Pharmacokinetic analysis of a single I.P. dose in rats; format: in vivo; details: rat, ip, single I.P. dose 10 mg/kg, Sprague-Dawley rats, plasma
Method: This part of the study was performed by Pipeline Biotech A/S (Spørring, Denmark). […] Plasma concentrations (free and bound) were determined by OnTarget Chemistry (Uppsala, Sweden, Project No.: PB243-001).
Before conducting in vivo experiments with animal models of myasthenia gravis, some pharmacokinetic details were obtained for C8 in response to one-bolus I.P. injection.

[4] = test system: rats injected with tubocurarine; assay: Rotarod running performance of rats after I.P. tubocurarine (myasthenia like phenotype); format: in vivo, rat; details: C8 20 mg/kg I.P. 2 hrs before tubocurarine 0.13 mg/kg I.P.; tested 21 minutes after tubocurarine; sham around 2%
Method: FIG. 9. […] A) illustrates the design of the experiments. Prior to Day One the animals had been familiarized to the rotarod in three training sessions distributed over two days.
(§2) In both series of experiments, running performance was tested on a rotarod using a protocol where the rod was accelerated gradually over a 5 min period, and the running time and covered distance before falling off the rod were measured.
Experiments with tubocurarine were carried out over two days, and on each day the effect of tubocurarine on running performance was tested. On the first day only tubocurarine was injected. […] On the second day, the animals were first allowed to run on the rotarod, and all animals performed normally. […] The allocation of the animals into the two groups (C8 or sham) was random and unknown to the experimenter (blinded experimental design).
In the first series of in vivo experiments, myasthenia gravis was simply mimicked by I.P. injection of tubocurarine (0.13 mg/kg) in animals that had been familiarized to running on the rotarod. On the first of two consecutive days, tubocurarine was injected I.P. and the running performance of the animal was tested 21 minutes after this injection. On the second day of experimentation, the animals first performed a test run to ensure that they were no longer affected by the tubocurarine injected the day before. […]

soleus muscles = assay: Mg2+ concentration required to depress nerve-stimulated force by 50% (Kd,Mg2+), combination treatments; format: cell-based, rat; details: C8 combined with 3,4-diaminopyridine
Method: FIG. 6. […] Muscles from 4-week-old rats were stimulated to contract by activating the motor nerve with short duration pulses in field stimulation. Muscles contracted every 10 min for 2 s in response to 30 Hz stimulation. Four different experimental conditions were used. […] C) similar to A) but this muscle had been pre-incubated with 3,4-AP. […] The force integral (AUC) was determined at each extracellular Mg^2+ concentration. AUC was plotted against Mg^2+ concentration and the data was fitted to a sigmoidal function (FIG. 6E). This provided the extracellular Mg^2+ concentration that was required to reduce the nerve-stimulated force to 50% (Mg50) under the four different conditions (see Table 5).
While the use of tubocurarine mimics conditions with reduced neuromuscular transmission due to post-synaptic dysfunction (myasthenia gravis, neuromuscular blockade), the experiments with elevated extracellular Mg^2+ mimics conditions with pre-synaptic dysfunction akin to a range of neuromuscular disorders including Lambert Eaton syndrome^26, motor neuron disorders^6-9 and polyneuropathy^18, 19. […] Based on this it was determined whether recovery of nerve-stimulated force at elevated extracellular Mg^2+ with ClC-1 inhibiting compounds could be added to force recovery with 3,4-AP. […] To quantify the effect of compounds on Mg^2+ sensitivity the force at the different Mg^2+ concentrations was determined. […]

[5] = test system: rats injected with MAB35 monoclonal antibody; assay: Rotarod running performance in passive immunization model of myasthenia gravis (MAB35); format: in vivo, rat; details: compared to sham
Method: FIG. 10. […] Prior to I.P. injection of MAB35 the animals had been familiarized to the rotarod over three training sessions distributed over two days. […] After this treatment performance was monitored every second hour. *Indicates significant different as evaluated using student t-test.
as §2
In experiments with MAB35, animals were first familiarized with the rotarod over two consecutive days and then injected I.P. with MAB35. After injection, rotarod performance was then again monitored regularly over the consecutive two days. […] A considerable number of animals, however, became moribund failing to walk and they had altered ventilation (rapid) and pronounced ptosis. These animals were not included in experiments.
In the last series of experiments, myasthenia gravis was mimicked in rats by inducing an immunological reaction against the motor endplate of muscle fibers using monoclonal antibody against the nicotinic ACh receptor in muscle fibers. Again the animals had been familiarized to the rotarod before the MAB35 injection. […] From FIG. 10 it can be seen that upon injection sham treatment the performance further declined.

rat soleus muscles = format: cell-based; details: 10 and 25 μM, compared to control conditions; 1 μM μ-conotoxin GiiiB
isolated human muscles = format: cell-based; details: 150 μM C8; elevated K+ and TTX

Compound | recovery of force and M-wave signal [1] | recovery of force and M-wave signal ([2]; muscle exposed to tubocurarine, FIG. 2A) | AUC(0-t) [3] [µg·h/mL] | C0 [3] [ng/mL] | Cmax [3] [ng/mL] | AUC(0-inf) ([3]; read-out: AUC 0-inf_obs) [µg·h/mL] | half-life ([3]; read-out: t½ (converted)) [h] | increase in running distance on second day compared to first day [4] | effect of combination on recovery of neuromuscular transmission (soleus muscles) | rotarod running performance after injection ([5]; 20 mg/kg C8 I.P.) | rotarod running performance after injection ([5]; 30 mg/kg C8 I.P.) | EPP amplitude (rat soleus muscles) | contractile force (isolated human muscles) | nerve-stimulated force after addition of compound (in words) ([2]; 50 μM added after 40 min in tubocurarine, FIG. 3A)
O=C(O)c1c2ccccc2cc2ccccc12 [Compound 9-AC, reference compound] | marked recovery of both force and M-wave signal | marked recovery of both force and M-wave signal | – | – | – | – | – | – | – | – | – | – | – | –
C[C@H](Oc1ccc(Br)cc1)C(=O)O [Compound C8, (2S)-2-(4-bromophenoxy)propanoic acid] | – | – | 204 | 24500 | 44600 | 205 | 3.7 | around 150% | unexpected synergistic effect | decline was reduced | clear recovery of performance | significantly larger EPPs | markedly recovery | recovered markedly
